From ChEMBL document CHEMBL5625199, “Discovery of triazole-bridged aryl adamantane analogs as an intriguing class of multifunctional agents for treatment of Alzheimer's disease” (Eur J Med Chem, 2023)
Active and inactive are the calls of the source. The rule behind the calls is not given here.

Tests used:
[1] = Selectivity index, ratio of IC50 for equine serum BuChE to IC50 for electric eel AChE
[2] = in vitro; conditions: PAMPA
Description: Permeability of the compound at 25 ug/ml incubated or 18 hrs by PAMPA-BBB assay

[3] = molecular target: Cholinesterase (Equus caballus, UniProt P81908); assay: Inhibition of equine serum BuChE using butyrylthiocholine iodide as substrate preincubated with enzyme for 10 mins followed by substrate addition and measured every 1 min for 20 mins by spectrophotometric analysis
[4] = Antagonist activity at GluN1-1a/GluN2B (unknown origin) expressed in xenopus laevis oocytes assessed as inhibition of glycine/glutamate-induced channel current incubated for 20s measured at holding potential of -70 mV by two-electrode voltage clamp technique; assay type: cell-based, Homo sapiens; conditions: Oocyte
[5] = molecular target: T1, Acetylcholinesterase (Electrophorus electricus, UniProt O42275); assay: Inhibition of electric eel AChE using acetylthiocholine iodide as substrate preincubated with enzyme for 10 mins followed by substrate addition and measured every 1 min for 20 mins by spectrophotometric analysis
[6] = molecular target: Glutamate receptor ionotropic, NMDA 2A (Homo sapiens, UniProt Q05586+Q12879); assay: Antagonist activity at GluN2A NMDA receptor (unknown origin)
[7] = species on record: Homo sapiens; assay: Antagonist activity at NMDA receptor (unknown origin) relative to control; conditions: filed as antagonist, concentration not given here
[8] = molecular target: Amyloid-beta precursor protein (Homo sapiens) (UniProt P05067); assay: Inhibition of AChE-induced Amyloid beta (1 to 42 residues) (unknown origin) aggregation at Abeta(1 to 42) to compound concentration ratio of 10:5 to 10:20 uM incubated for 48 hrs by ThT fluorescence method
[9] = Antagonist activity at GluN1-1b/GluN2C (unknown origin) expressed in xenopus laevis oocytes assessed as inhibition of glycine/glutamate-induced channel current incubated for 20s measured at holding potential of -70 mV by two-electrode voltage clamp technique; assay type: cell-based; conditions: Homo sapiens, Oocyte
[10] = Antagonist activity at GluN1-1b/GluN2A (unknown origin) expressed in xenopus laevis oocytes assessed as inhibition of glycine/glutamate-induced channel current incubated for 20s measured at holding potential of -70 mV by two-electrode voltage clamp technique; assay type: cell-based; conditions: Homo sapiens, Oocyte
[11] = molecular target: T1, Acetylcholinesterase; assay: Non-competitive inhibition of electric eel AChE by Dixon plot analysis
[12] = test system: Rattus norvegicus; assay: Antialzheimer activity against Abeta(1 to 42)-induced coginitive deficit Wistar rat model assessed as increase in total number of platform crossings at 10 mg/kg, po administered for 7 days by Morris water maze test; assay type: functional, organism-based; conditions: time 7.0 day
[13] = Antagonist activity at GluN1-1a/GluN2C (unknown origin) expressed in xenopus laevis oocytes assessed as inhibition of glycine/glutamate-induced channel current incubated for 20s measured at holding potential of -70 mV by two-electrode voltage clamp technique; assay type: cell-based; conditions: Homo sapiens, Oocyte
[14] = test system: HEK-293T; assay: Cytotoxicity against HEK293T cells assessed as reduction in cell viability at 0.3 to 30 uM measured after 44 hrs by WST-1 assay; assay type: toxicity, cell-based; conditions: human, dose 0.3-30 µM
[15] = test system: Rattus norvegicus; assay: (§1) Antialzheimer activity against scopalamine-induced amnesia Wistar rat model assessed as inhibition of cognition impairment by measuring increase in spontaneous alterations at 10 mg/kg, po administered for 7 days and on day 7 administered with scopolamine at 30 mins before drug administration by Y-maze test; assay type: functional, organism-based; conditions: time 7.0 day
[16] = molecular target: Amyloid-beta precursor protein (Homo sapiens) (UniProt P05067); assay: Inhibition of self-induced Amyloid beta (1 to 42 residues) (unknown origin) aggregation at Abeta(1 to 42) to compound concentration ratio of 10:5 to 10:20 uM incubated for 48 hrs by ThT fluorescence method
[17] = molecular target: T2, Acetylcholinesterase (Rattus norvegicus) (UniProt P37136); assay: Ex vivo inhibition of AChE activity in brain of scopalamine-induced amnesia Wistar rat model at 10 mg/kg, po administered for 7 days and on day 7 administered with scopolamine at 30 mins before drug administration; assay type: functional, organism-based; conditions: time 7.0 day
T2 sequence (whole entry): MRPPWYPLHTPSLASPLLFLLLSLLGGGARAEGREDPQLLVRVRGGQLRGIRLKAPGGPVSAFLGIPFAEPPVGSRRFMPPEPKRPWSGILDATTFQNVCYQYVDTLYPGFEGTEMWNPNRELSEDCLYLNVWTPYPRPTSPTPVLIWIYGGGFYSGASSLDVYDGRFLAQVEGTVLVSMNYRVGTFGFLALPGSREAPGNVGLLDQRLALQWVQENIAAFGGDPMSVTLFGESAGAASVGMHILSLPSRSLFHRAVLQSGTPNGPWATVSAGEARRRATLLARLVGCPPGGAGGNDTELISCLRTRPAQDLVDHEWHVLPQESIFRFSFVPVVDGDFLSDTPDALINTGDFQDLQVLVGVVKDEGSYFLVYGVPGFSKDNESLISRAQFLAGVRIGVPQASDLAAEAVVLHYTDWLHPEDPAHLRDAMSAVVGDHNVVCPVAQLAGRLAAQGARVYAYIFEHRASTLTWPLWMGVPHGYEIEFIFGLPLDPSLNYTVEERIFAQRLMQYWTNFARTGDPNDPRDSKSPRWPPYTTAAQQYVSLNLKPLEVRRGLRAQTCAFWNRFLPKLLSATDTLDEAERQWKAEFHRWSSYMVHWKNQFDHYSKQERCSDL

[18] = molecular target: T2, Acetylcholinesterase (Rattus norvegicus); assay: Ex vivo inhibition of AChE activity in brain of scopalamine-induced amnesia Wistar rat model at 2.5 to 10 mg/kg, po administered for 7 days and on day 7 administered with scopolamine at 30 mins before drug administration; assay type: functional, organism-based; conditions: dose 2.5-10 mg/kg, time 7.0 day
[19] = Antagonist activity at GluN1-1a/GluN2D (unknown origin) expressed in xenopus laevis oocytes assessed as inhibition of glycine/glutamate-induced channel current incubated for 20s measured at holding potential of -70 mV by two-electrode voltage clamp technique; assay type: cell-based; conditions: Homo sapiens, Oocyte
[20] = Antagonist activity at GluN1-1b/GluN2B (unknown origin) expressed in xenopus laevis oocytes assessed as inhibition of glycine/glutamate-induced channel current incubated for 20s measured at holding potential of -70 mV by two-electrode voltage clamp technique; assay type: cell-based; conditions: Homo sapiens, Oocyte
[21] = Antagonist activity at GluN1-1b/GluN2D (unknown origin) expressed in xenopus laevis oocytes assessed as inhibition of glycine/glutamate-induced channel current incubated for 20s measured at holding potential of -70 mV by two-electrode voltage clamp technique; assay type: cell-based; conditions: Homo sapiens, Oocyte
[22] = Antagonist activity at GluN1-1a/GluN2A (unknown origin) expressed in xenopus laevis oocytes assessed as inhibition of glycine/glutamate-induced channel current incubated for 20s measured at holding potential of -70 mV by two-electrode voltage clamp technique; assay type: cell-based; conditions: Homo sapiens, Oocyte
[23] = test system: SH-SY5Y; assay: Neuroprotective activity against human SH-SY5Y cells assessed as reduction of Abeta(1 to 42)-induced cytotoxicity upto 10 uM pretreated with Abeta42 for 24 hrs followed by incubation with compound for 72 hrs by MTT assay; assay type: functional, cell-based
[24] = molecular target: Acetylcholinesterase (Homo sapiens, UniProt P22303); assay: Inhibition of human AChE
[25] = test system: Rattus norvegicus; assay: as §1, with “alterations at 2.5 to 10 mg/kg,” for “alterations at 10 mg/kg,”; assay type: functional, organism-based; conditions: dose 2.5-10 mg/kg, time 7.0 day
[26] = test system: HEK-293T; assay: Cytotoxicity against HEK293T cells assessed as reduction in cell viability at 100 uM measured after 44 hrs by WST-1 assay; assay type: toxicity, cell-based; conditions: human
[27] = test system: Rattus norvegicus; assay: Antialzheimer activity against Abeta(1 to 42)-induced coginitive deficit Wistar rat model assessed as increase in time spent in the platform zone at 10 mg/kg, po administered for 7 days by Morris water maze test; assay type: functional, organism-based; conditions: time 7.0 day

T1 sequence (O42275 whole entry): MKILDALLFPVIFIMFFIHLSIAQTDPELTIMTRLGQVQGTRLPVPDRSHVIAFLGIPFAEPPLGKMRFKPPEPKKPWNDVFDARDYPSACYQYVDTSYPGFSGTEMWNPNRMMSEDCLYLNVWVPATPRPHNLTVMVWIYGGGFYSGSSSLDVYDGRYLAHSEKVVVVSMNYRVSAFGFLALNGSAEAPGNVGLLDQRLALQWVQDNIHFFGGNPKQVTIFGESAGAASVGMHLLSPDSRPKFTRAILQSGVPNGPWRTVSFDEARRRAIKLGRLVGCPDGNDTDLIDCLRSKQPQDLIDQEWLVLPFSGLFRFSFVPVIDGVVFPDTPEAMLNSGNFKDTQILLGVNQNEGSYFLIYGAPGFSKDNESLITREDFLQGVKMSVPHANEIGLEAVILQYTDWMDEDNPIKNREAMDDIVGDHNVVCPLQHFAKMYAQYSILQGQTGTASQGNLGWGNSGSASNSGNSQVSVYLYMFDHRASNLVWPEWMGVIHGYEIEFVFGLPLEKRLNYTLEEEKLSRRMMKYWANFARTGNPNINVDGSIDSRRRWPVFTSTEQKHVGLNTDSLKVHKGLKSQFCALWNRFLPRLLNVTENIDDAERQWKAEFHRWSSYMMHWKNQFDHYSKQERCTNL
Sequence of Amyloid-beta precursor protein (Homo sapiens) (P05067 whole entry, the tested form may be a part): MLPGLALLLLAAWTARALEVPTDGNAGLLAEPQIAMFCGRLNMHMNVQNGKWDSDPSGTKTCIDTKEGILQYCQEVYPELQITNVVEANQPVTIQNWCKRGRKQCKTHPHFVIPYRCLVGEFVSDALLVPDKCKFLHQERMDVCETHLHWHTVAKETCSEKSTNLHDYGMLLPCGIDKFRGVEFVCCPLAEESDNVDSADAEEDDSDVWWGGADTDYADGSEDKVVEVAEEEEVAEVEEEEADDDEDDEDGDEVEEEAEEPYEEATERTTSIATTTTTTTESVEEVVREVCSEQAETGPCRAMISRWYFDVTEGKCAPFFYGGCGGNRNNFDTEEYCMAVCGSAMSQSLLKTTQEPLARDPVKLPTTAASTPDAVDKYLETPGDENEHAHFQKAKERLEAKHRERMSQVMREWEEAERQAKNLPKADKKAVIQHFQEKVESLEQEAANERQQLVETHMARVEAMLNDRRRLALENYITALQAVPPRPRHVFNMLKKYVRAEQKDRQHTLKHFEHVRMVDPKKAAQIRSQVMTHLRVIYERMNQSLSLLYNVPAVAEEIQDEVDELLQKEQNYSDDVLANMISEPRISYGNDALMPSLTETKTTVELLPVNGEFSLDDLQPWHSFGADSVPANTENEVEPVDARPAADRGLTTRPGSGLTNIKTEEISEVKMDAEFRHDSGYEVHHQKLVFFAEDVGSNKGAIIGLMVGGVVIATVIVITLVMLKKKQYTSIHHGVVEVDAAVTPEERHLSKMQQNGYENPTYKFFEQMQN
Sequence of Cholinesterase (P81908 whole entry): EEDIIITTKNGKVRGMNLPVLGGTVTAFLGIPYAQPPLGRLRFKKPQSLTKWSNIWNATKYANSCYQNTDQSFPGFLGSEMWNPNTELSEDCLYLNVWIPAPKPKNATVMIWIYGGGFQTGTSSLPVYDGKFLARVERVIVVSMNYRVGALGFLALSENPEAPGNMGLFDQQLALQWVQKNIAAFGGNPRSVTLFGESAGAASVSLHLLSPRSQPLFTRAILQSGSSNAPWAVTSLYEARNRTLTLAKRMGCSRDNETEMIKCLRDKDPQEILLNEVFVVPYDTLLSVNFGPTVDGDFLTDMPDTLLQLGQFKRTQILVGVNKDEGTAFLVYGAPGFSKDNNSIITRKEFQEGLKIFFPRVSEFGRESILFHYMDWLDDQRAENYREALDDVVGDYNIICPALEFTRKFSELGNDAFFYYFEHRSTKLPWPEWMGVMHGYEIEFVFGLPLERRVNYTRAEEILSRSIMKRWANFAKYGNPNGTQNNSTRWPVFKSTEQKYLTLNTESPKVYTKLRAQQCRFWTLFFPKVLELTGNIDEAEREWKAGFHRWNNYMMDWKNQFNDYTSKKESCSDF
Sequence of Acetylcholinesterase (Homo sapiens, UniProt P22303) (P22303 whole entry): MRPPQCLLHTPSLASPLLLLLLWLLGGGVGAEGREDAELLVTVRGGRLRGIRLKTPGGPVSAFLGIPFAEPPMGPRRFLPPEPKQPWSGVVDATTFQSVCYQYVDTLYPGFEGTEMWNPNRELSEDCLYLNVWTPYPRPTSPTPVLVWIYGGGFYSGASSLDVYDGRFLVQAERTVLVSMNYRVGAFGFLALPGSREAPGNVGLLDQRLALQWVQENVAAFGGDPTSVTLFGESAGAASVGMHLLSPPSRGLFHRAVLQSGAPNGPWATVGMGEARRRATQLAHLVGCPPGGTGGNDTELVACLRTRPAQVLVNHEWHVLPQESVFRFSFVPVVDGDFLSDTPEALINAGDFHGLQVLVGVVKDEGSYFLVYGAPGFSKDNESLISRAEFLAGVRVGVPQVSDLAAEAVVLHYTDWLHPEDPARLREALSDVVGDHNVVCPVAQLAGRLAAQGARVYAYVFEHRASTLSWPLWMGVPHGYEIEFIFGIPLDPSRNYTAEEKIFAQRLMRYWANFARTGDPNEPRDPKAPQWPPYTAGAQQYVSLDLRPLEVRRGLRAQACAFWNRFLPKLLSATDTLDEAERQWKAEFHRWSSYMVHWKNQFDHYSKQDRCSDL
Sequence of Glutamate receptor ionotropic, NMDA 2A (Q12879 whole entry, one chain of several): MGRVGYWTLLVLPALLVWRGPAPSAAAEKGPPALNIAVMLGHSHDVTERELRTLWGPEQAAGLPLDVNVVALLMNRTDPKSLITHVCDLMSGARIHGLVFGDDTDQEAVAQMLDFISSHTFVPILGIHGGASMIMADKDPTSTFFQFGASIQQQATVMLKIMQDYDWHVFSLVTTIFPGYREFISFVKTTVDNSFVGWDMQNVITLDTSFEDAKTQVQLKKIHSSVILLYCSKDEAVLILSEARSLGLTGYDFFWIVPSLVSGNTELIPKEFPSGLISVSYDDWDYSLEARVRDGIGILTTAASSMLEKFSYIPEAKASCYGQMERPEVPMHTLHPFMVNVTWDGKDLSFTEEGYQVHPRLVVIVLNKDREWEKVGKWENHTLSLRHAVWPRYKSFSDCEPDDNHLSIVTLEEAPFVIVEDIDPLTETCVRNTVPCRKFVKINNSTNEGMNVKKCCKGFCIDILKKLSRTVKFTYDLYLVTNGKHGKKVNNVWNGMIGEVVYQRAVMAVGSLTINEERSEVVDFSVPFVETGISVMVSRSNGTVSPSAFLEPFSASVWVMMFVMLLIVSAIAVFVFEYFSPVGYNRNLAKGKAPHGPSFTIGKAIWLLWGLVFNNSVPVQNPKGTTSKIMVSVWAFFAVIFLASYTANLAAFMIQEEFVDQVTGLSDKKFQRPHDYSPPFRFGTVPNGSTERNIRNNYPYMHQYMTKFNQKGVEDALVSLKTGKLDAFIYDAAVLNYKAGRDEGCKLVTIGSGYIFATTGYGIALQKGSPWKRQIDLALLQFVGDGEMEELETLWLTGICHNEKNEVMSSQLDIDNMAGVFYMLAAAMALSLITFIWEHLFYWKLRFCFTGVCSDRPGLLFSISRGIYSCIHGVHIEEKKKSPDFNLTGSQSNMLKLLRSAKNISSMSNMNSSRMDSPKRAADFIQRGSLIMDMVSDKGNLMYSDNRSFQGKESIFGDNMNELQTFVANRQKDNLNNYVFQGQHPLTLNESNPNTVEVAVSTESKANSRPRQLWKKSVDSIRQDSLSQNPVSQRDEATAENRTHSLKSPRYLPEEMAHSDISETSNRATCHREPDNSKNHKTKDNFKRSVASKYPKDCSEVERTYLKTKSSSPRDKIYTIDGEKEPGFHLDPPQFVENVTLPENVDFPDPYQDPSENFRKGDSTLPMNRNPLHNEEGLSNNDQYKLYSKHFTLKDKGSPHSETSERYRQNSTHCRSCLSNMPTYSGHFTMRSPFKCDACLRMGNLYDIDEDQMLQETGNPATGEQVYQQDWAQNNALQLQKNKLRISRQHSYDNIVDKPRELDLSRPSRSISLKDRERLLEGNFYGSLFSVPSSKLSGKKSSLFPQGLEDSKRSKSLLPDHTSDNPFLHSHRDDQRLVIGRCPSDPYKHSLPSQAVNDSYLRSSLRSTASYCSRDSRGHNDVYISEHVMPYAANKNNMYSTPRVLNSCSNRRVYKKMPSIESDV

| SMILES | Ratio IC50 [1] | Papp at 18 h, 25 ug/ml [2] [×10⁻⁶ cm/s] | IC50 [3] [µM] | IC50 [4] [µM] | IC50 [5] [nM] | also measured |
| --- | --- | --- | --- | --- | --- | --- |
| O=[N+]([O-])c1ccc(Cn2cc(CNC3CCCCCC3)nn2)cc1 | 4.14 | 6.31 | 19.2 | 116 | 4640 |  |
| O=[N+]([O-])c1ccc(Cn2cc(CNC34CC5CC(CC(C5)C3)C4)nn2)cc1 | 5.93 | 6.83 | 9.54 | 21.8 | 1610 |  |
| CC(C)c1ccc(Cn2cc(CNC34CC5CC(CC(C5)C3)C4)nn2)cc1 | 9.79 | 7.63 | 7.83 | 79.5 | 799 |  |
| c1ccc(Cn2cc(CNC34CC5CC(CC(C5)C3)C4)nn2)cc1 | 13.1 | 6.95 | 4.72 |  | 360 |  |
| Fc1ccc(Cn2cc(CNC34CC5CC(CC(C5)C3)C4)nn2)cc1 | 16.9 | 7.75 | 3.27 |  | 194 |  |
| CC(C(O)c1ccc(O)cc1)N1CCC(Cc2ccccc2)CC1 (centres undefined) [IFENPRODIL] |  |  |  |  |  | IC50 [6]: 146 µM |
| c1ccc(CCNC23CC4CC(CC(C4)C2)C3)cc1 |  |  |  |  |  | inhibition [7]: 89.5% |
| Fc1ccc(Cn2cc(CNC3CCCCCC3)nn2)cc1 | 5.75 | 8.42 | 10.5 | 97.3 | 1820 |  |
| Cc1ccc(Cn2cc(CNC34CC5CC(CC(C5)C3)C4)nn2)cc1 | 17.8 | 7.48 | 6.04 | 197 | 340 |  |
| CC(C)c1ccc(Cn2cc(CNC3CCCCCC3)nn2)cc1 | 10.3 | 7.24 | 15.7 | 217 | 1520 |  |
| Brc1ccc(Cn2cc(CNC34CC5CC(CC(C5)C3)C4)nn2)cc1 | 29.6 | 8.75 | 2.55 | 3.88 | 86 | inhibition [8]: Dose-Dependent Effect; IC50 [9]: 45.1 µM; IC50 [10]: 36.5 µM; Ki [11]: 26 nM; Activity [12]: Active; IC50 [13]: 90.2 µM; Activity [14]: Non-Toxic; Activity [15]: Active; inhibition [16]: Dose-Dependent Effect; inhibition [17]: Active; inhibition [18]: Dose-Dependent Effect; IC50 [19]: 112 µM; IC50 [20]: 3000 nM; IC50 [21]: 99.5 µM; IC50 [22]: 47.4 µM; Activity [23]: Active; IC50 [24]: 92 nM; Activity [25]: Dose-Dependent Effect; Activity [26]: Toxic; Activity [27]: Active |
| Clc1ccc(Cn2cc(CNC34CC5CC(CC(C5)C3)C4)nn2)cc1 | 28.1 | 8.24 | 3.8 | 5.05 | 135 | inhibition [8]: Dose-Dependent Effect; IC50 [9]: 52.8 µM; IC50 [10]: 142 µM; Activity [12]: Active; IC50 [13]: 143 µM; Activity [14]: Non-Toxic; Activity [15]: Active; inhibition [16]: Dose-Dependent Effect; inhibition [17]: Active; inhibition [18]: Dose-Dependent Effect; IC50 [19]: 789 µM; IC50 [20]: 2860 nM; IC50 [21]: 239 µM; IC50 [22]: 129 µM; Activity [23]: Active; IC50 [24]: 133 nM; Activity [25]: Dose-Dependent Effect; Activity [26]: Toxic; Activity [27]: Active |
